Experimental data as given in patent US8168667B2 (Galapagos NV, priority 2006, dated 2012).
Like-named read-outs stand apart in the source and are kept apart here.

Columns and labels:
[1] = target: T1, human androgen receptor (hAR) (Homo sapiens, UniProt P10275); assay: Functional response test: hAR transactivation (luciferase reporter) in HALP2 cells; format: cell-based
T1 sequence (P10275 1-920): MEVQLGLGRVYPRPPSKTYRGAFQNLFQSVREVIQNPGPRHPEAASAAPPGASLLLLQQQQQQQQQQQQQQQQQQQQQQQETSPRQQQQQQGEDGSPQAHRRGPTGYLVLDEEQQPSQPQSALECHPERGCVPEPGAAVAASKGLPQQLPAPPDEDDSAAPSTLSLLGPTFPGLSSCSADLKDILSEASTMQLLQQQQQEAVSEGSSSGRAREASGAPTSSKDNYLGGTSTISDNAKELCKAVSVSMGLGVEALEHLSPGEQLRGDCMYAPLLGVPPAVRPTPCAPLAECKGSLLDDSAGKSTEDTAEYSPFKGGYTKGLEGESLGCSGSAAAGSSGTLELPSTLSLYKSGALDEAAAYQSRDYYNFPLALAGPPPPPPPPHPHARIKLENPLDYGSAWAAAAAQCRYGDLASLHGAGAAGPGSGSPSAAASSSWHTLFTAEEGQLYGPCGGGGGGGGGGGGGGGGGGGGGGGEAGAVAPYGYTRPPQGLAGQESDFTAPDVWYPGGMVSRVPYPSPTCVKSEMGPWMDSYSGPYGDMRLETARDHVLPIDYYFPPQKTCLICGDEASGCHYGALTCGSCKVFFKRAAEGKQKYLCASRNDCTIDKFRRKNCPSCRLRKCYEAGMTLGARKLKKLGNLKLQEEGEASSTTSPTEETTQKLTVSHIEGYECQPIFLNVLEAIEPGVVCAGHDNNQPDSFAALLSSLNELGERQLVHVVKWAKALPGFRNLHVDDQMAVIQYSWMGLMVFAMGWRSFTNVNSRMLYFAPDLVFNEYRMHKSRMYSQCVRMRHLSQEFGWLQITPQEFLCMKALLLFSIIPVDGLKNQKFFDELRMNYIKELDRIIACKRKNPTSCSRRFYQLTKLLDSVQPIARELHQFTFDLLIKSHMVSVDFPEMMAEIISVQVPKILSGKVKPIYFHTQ
Method in brief: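 HALP2 cells are HeLa cells stably transfected with CMV-driven hAR and a probasin ARE-luciferase reporter. They were seeded 24 h ahead, then exposed to compounds for 20 hours at 37° C in phenol red-free DMEM with 5% desteroided serum. Luciferase luminescence was measured after lysis; for antagonist mode, compounds were tested against increasing DHT concentrations.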

[2] = tested on: castrated immature young rats; assay: Adapted model of Hershberger's test (levator ani and ventral prostate weight); format: in vivo, Sprague Dawley rats; settings: Rattus norvegicus, po, 96 h
Protocol: The selective modulating activity of the androgen receptor was tested in a model of castrated immature young rats. This model, which is widely recognised for evaluating the anabolic effects of androgen compounds on the muscles and on the genitalia, has been described by Hershberger et al. 1953 Proc. Soc. Expt. Biol. Med. 83:175.
The method is based on the measurement of the well-known effects of androgens on the growth of the muscles and the accessory male sex organs in animals, and also in men. The consequences of castration appear in the form of a rapid involution and atrophy of the prostate and the seminal vesicles and of the anus-lifting muscle (levator ani). This effect may be completely compensated by an exogeneous administration of androgen, in particular of testosterone. The model is thus used to determine the capacity of the tested molecules to maintain the weight of the accessory sex and muscle organs in immature castrated rats, and therefore their androgenic efficacy.
Immature young Sprague Dawley rats (4 to 5 weeks old) weighing approximately 140-160 g (Charles River, Les Oncins, FRANCE) were distributed randomly in various groups and were kept in an environment at 22±2° C. with an alternating day/night cycle of 12 hours and ad libitum access to food and drink.
On day 0, that is, seven days before commencement of the first treatment, the rats were weighed individually then anaesthetised with an intraperitoneal dose of Ketamine/xylazine (85/15 mg/kg, approximately 2 ml/kg). Each animal was then placed on a sterile field and the abdomen and the scrotum were disinfected with Betadine and 70% alcohol. In the case of the orchidectomised control animals (ORX), the testicles were removed via an incision in the middle of the scrotum. A sterile suture was then made to ligature the supra-testicular portion of the tissue prior to surgical section of each testicle. The groups of animals to be treated by the tested compounds were operated on in an identical manner. In the case of the intact control animals (SHAM), the testicles were similarly extracted and reintroduced delicately to their original location. The site of surgical intervention was then sutured using sterile suture thread, and the site was disinfected again by application of Betadine. Each animal was then kept under a sterile pad until it awoke, before being returned to its cage. The animals were kept in an environment at 22±2° C. with an alternating day/night cycle of 12 hours and ad libitum access to food and drink. The animals were treated with the molecules to be tested from post-surgery day 7 and until day 10 preceding sacrifice (day 11).
The rats were split into groups and treated daily from day 7 to day 10 under the conditions defined below: • 1. SHAM control group: Vehicle (0.5% aqueous methyl cellulose) administered per os. • 2. ORX control group: Vehicle (0.5% aqueous methyl cellulose) administered per os. • 3. Treated ORX group: The tested compounds were administered individually per os in suspension in the vehicle described above, in a dose of 30 mg/kg.
After treatment for 4 successive days, the animals were decapitated using a guillotine. The levator ani and the ventral prostate were removed and weighed individually. For comparing inter-experimental data, the weight of each organ was standardised and expressed in milligrammes per 100 g of the weight of the animal (W). For each organ, the average of the standardised weights of the ORX control group was fixed by definition at 0% and the average of the standardised weights of the SHAM control group was fixed by definition at 100%. The efficacy of each product was expressed as a percentage and calculated using the following formula: (Wtreated−WORX)/(WSHAM−WORX)×100 A subsequent ANOVA test was used for statistical analysis to identify the differences between groups.

[3] = antagonism, concentration which increases the EC50 of the DHT by a factor of 2, Schild regression, HALP2 cells
[4] = read-out: anabolic protection efficacy with regard to levator ani
[5] = read-out: androgenic efficacy with regard to the prostate

SMILES	melting point [°C]	KSchild (nM) potency [1] [nM]	also measured
CN1C(=O)N(c2ccc(Cl)c(Cl)c2)C(=O)C1(CF)c1ccc(O)cc1 (stereo not shown) [Example 184, 1-(3,4-dichlorophenyl)-4-fluoromethyl-4-(4-hydroxyphenyl)-3-methylimidazolidine-2,5-dione]	167.2	–	EC50 ([1]; agonism, HALP2 cells (HeLa, hAR + ARE-luciferase), 20 hours at 37° C.): 4.9 nM; KSchild (nM) potency [1, 3]: 2.8 nM
CN1C(=O)N(c2ccc(C#N)c(C(F)(F)F)c2)C(=O)C1c1ccc(O)cc1 (stereo not shown) [Example 2, 4-[2,5-dioxo-4-(4-hydroxyphenyl)-3-methyl-imidazolidin-1-yl]-2-trifluoromethylbenzonitrile]	157.4	9.65	–
CC1(c2ccc(O)cc2)C(=O)N(c2ccc(C#N)c(C(F)(F)F)c2)C(=O)N1CCF (stereo not shown) [Example 226, 4-[2,5-dioxo-3-(2-fluoroethyl)-4-(4-hydroxyphenyl)-4-methylimidazolidin-1-yl]-2-trifluoromethylbenzonitrile]	157	2.45	–
CN1C(=O)N(c2ccc(Cl)c(Cl)c2)C(=O)C1(C)c1ccc(O)cc1 (stereo not shown) [Example 25, 1-(3,4-dichlorophenyl)-3,4-dimethyl-4-(4-hydroxyphenyl)imidazolidine-2,5-dione]	184	10.9	–
CCOCN1C(=O)N(c2ccc(C#N)c(C(F)(F)F)c2)C(=O)C1(C)c1ccc(O)cc1 (stereo not shown) [Example 221, 4-[3-(ethoxymethyl)-4-(4-hydroxyphenyl)-4-methyl-2,5-dioxoimidazolidin-1-yl]-2-trifluoromethylbenzonitrile]	143	5.66	–
CCN1C(=O)N(c2ccc(C#N)c(C(F)(F)F)c2)C(=O)C1(C)c1ccc(O)cc1 (stereo not shown) [Example 224, 4-[2,5-dioxo-3-ethyl-4-(4-hydroxyphenyl)-4-methylimidazolidin-1-yl]-2-trifluoromethylbenzonitrile]	165	–	KSchild (nM) potency [1, 3]: 2 nM
CN1C(=O)N(c2ccc(C#N)c(C(F)(F)F)c2)C(=O)C1(CF)c1ccc(O)cc1 (stereo not shown) [Example 177, 4-[2,5-dioxo-4-fluoromethyl-4-(4-hydroxyphenyl)-3-methylimidazolidin-1-yl]-2-trifluoromethylbenzonitrile]	–	0.72	inhibition in vivo at 30 mg/kg [2, 4]: 50 to 140%; inhibition in vivo at 30 mg/kg [2, 5]: 5 to 70%
C#CCN1C(=S)N(c2ccc(C#N)c(C(F)(F)F)c2)C(=O)C1(C)c1ccc(O)cc1 (stereo not shown) [Example 43, 4-[4-(4-hydroxyphenyl)-4-methyl-5-oxo-3-(2-propynyl)-2-thioxoimidazolidin-1-yl]-2-trifluoromethylbenzonitrile]	169	0.49	–
CN1C(=O)N(c2ccc(C#N)c(C(F)(F)F)c2)C(=O)C1(C)c1ccc(O)c(Cl)c1 (stereo not shown) [Example 173, 4-[4-(3-chloro-4-hydroxyphenyl)-3,4-dimethyl-2,5-dioxoimidazolidin-1-yl]-2-trifluoromethylbenzonitrile]	161.1	3	–
COc1cc(N2C(=O)N(C)C(C)(c3ccc(O)cc3)C2=O)ccc1C#N (stereo not shown) [Example 9, 4-[3,4-dimethyl-2,5-dioxo-4-(4-hydroxyphenyl)imidazolidin-1-yl]-2-methoxybenzonitrile]	–	2.1	inhibition in vivo at 30 mg/kg [2, 4]: 50 to 140%; inhibition in vivo at 30 mg/kg [2, 5]: 5 to 70%
C#CCC1(c2ccc(O)cc2)C(=O)N(c2ccc(C#N)c(C(F)(F)F)c2)C(=O)N1C (stereo not shown) [Example 177.3, 4-[2,5-dioxo-4-(4-hydroxyphenyl)-3-methyl-4-(2-propynyl)imidazolidin-1-yl]-2-trifluoromethylbenzonitrile]	122	15	–
CN1C(=O)N(c2ccc(C#N)c(C(F)(F)F)c2)C(=O)C1(CO)c1ccc(O)cc1 (stereo not shown) [Example 176, 4-[2,5-dioxo-4-hydroxymethyl-4-(4-hydroxyphenyl)-3-methyl-imidazolidin-1-yl]-2-trifluoromethylbenzonitrile]	–	1.34	inhibition in vivo at 30 mg/kg [2, 4]: 50 to 140%; inhibition in vivo at 30 mg/kg [2, 5]: 5 to 70%
CCCN1C(=O)N(c2ccc(C#N)c(C(F)(F)F)c2)C(=O)C1(C)c1ccc(O)cc1 (stereo not shown) [Example 225, 4-[2,5-dioxo-4-(4-hydroxyphenyl)-4-methyl-3-propylimidazolidin-1-yl]-2-trifluoromethylbenzonitrile]	125	2.83	–
COCN1C(=O)N(c2ccc(C#N)c(C(F)(F)F)c2)C(=O)C1(C)c1ccc(O)cc1 (stereo not shown) [Example 222, 4-[4-(4-hydroxyphenyl)-3-methoxymethyl-4-methyl-2,5-dioxoimidazolidin-1-yl]-2-trifluoromethylbenzonitrile]	–	–	inhibition in vivo at 30 mg/kg [2, 4]: 50 to 140%; inhibition in vivo at 30 mg/kg [2, 5]: 5 to 70%
CN1C(=O)N(c2ccc(Cl)c(Cl)c2)C(=O)C1(CO)c1ccc(O)cc1 (stereo not shown) [Example 190, 1-(3,4-dichlorophenyl)-4-hydroxymethyl-4-(4-hydroxyphenyl)-3-methylimidazolidine-2,5-dione]	–	–	KSchild (nM) potency [1, 3]: 0.37 nM
CC1(c2ccc(O)cc2)C(=O)N(c2ccc(C#N)c(C(F)(F)F)c2)C(=O)N1CCC#N (stereo not shown) [Example 149]	–	60	–
C=CCN1C(=O)N(c2ccc(C#N)c(C(F)(F)F)c2)C(=O)C1(C)c1ccc(O)cc1 (stereo not shown) [Example 23, 4-[2,5-dioxo-4-(4-hydroxyphenyl)-4-methyl-3-(2-propenyl)imidazolidin-1-yl]-2-trifluoromethylbenzonitrile]	–	–	KSchild (nM) potency [1, 3]: 2 nM
CN1C(=O)N(c2ccc(C#N)c(C(F)(F)F)c2)C(=O)C12CCc1cc(O)ccc12 (stereo not shown) [Example 181, 4-[2′,3′-dihydro-2,5-dioxo-5′-hydroxy-3-methylspiro(imidazolidin-4,1′(1H)inden)-1-yl]-2-trifluoromethylbenzonitrile]	–	6	–
CC1(c2ccc(O)cc2)C(=O)N(c2ccc(C#N)c(C(F)(F)F)c2)C(=O)N1CC#CCO (stereo not shown) [Example 243, 4-[2,5-dioxo-3-(4-hydroxy-2-butynyl)-4-(4-hydroxyphenyl)-4-methylimidazolidinyl-1-yl]-2-trifluoromethylbenzonitrile]	–	4.56	–
